Measurements as given in PubChem BioAssay AID179 (DTP/NCI, 2004).
Active and inactive are the calls of the source.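 How the source made its calls: active means compounds giving half or more protection of infected cells from virus-caused growth loss, again on retest; inactive means the rest.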

System: CEM cells HIV-1 protection, formazan growth assay
Test: NCI AIDS Antiviral Assay
Settings: for IC50: measured here: growth of uninfected CEM cells
Method in brief: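 Human CEM cells, uninfected and HIV-1-infected, exposed to five drug concentrations; growth measured by soluble formazan assay and scored as percent protection from infection, with protecting compounds retested.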

Structure (SMILES)	EC50 [µM]	IC50 [µM]	outcome
FC(F)(Sc1ncccn1)c1nc2ccccc2o1	19.5	102	
OC1COC(n2c3ccc(Br)cc3c3ccc4c5ccccc5[nH]c4c32)C(O)C1O (stereo not drawn)	> 112		
CC(=O)CCCCC(=O)Nc1ccc(CC(NC(=O)OC(C)(C)C)C(=O)NCC(=O)OCc2ccccc2)cc1 (stereo not drawn)	> 200	12.9	
C/C(=N/OC(=O)N(C)C)c1ccc(Cl)c(Cl)c1	> 200	102	
COc1cccc(CCn2c(N)c(-c3ccccc3)c3ccc([N+](=O)[O-])cc3c2=O)c1	> 200	7.41	
CC(C)(C)[Si](C)(C)OC[C@@H](NC(=O)OCc1ccccc1)C(=O)O	> 200	> 200	
C[C@]12CCC3[C@@H](C[C@H]4OC(=O)[C@@]35CCC(=O)C=C45)C1CCC2=O (stereo partly drawn)			inactive
COC(=O)c1ccc(C)cc1/C=C1\Cc2ccc(C)cc2C1=O	> 200	18.6	
N#Cc1nc(Nc2ccc(Cl)cc2)sc1N	> 525	9.77	
CC(=O)Oc1ccc(C2SCc3nc4ccccc4n32)cc1 (stereo not drawn)	> 200	18.2	
Cc1ccc(S(=O)(=O)Nn2c(-c3ccccc3)c(C#N)c(-c3ccc([N+](=O)[O-])cc3)c(C#N)c2=O)cc1	> 200	56.2	
CC(=O)Oc1c(OC(C)C)c(C)c(O[Si](C(C)C)(C(C)C)C(C)C)c2[nH]c3ccccc3c12	> 100	13.5	
CSC(=S)Nc1cc(C)ccn1	> 200	155	
Cc1ccc(S(=O)OCC23CC4CC(CC(C4)C2)C3)cc1 (stereo not drawn)			inactive
NC(=O)CNC(=O)CCCCC1CCSS1 (stereo not drawn)	51.3	> 200	
CCCc1cc(=O)oc2c3c(cc(OCC)c12)O[C@H](C)[C@@H](C)C3=O	> 200	8.32	
O=C1Nc2cc(Cl)ccc2N=CC1NC(=O)C(c1ccccc1)c1ccccc1Cl (stereo not drawn)	> 295	219	
CN(C)c1ccc(C(c2c(O)c3ccc(O)cc3oc2=O)c2c(O)c3ccc(O)cc3oc2=O)cc1	> 200	30.2	

Structure (SMILES)	EC50 [µM]	IC50 [µM]	outcome
CCOP(=O)(OCC)/C(C#N)=C/c1ccccc1Cl			inactive
COc1ccc(OCC(=O)O)c2c1CCC(C(C)C)C2=O (stereo not drawn)			inactive
c1ccc2c(c1)nc1nc3c(cn12)CCCCC3			inactive
CS(=O)(=O)Oc1cccc(/C=N/N=C(\N)NO)c1	> 214	36.3	
CN1c2ccccc2N(C(=O)c2ccccc2)C(CC(=O)O)c2cccn21 (stereo not drawn)	> 692	288	
CC(=O)c1sc(-c2nc(C)c(C(=O)/C=C\c3ccc(/C=C\C(=O)c4sc(-c5nc(C)c(C(C)=O)s5)nc4C)cc3)s2)nc1C	> 28.2	> 28.2	
CCN(CC)c1ccc(/C=C2/C=Cc3ccccc32)cc1	> 7.24	> 7.24	
CCCOC(=O)Nc1ccc2c(c1)c1c3[nH]c(=O)c4cccn4c3ccc1n2CC	> 200	> 200	
CCOC(=O)/C(=C\c1cccc(F)c1)C(C)=O	> 398	182	
O=C(/C=C/c1ccccc1)NCCC1(O)C(=O)Nc2ccccc21 (stereo not drawn)	> 562	525	
COc1cc2c(cc1OC)C1c3ccccc3C(C#N)(C2)N(C(=O)c2ccccc2)C1O (stereo not drawn)			inactive
FC(F)(Oc1ccccc1)c1nc2ccccc2o1	> 200	64.6	
O=c1[nH]c(=S)[nH]c2c1CN(CCCN1CCOCC1)CN2	> 794	49	
NC(CSS(=O)(=O)O)=NCCc1ccc(O)cc1	> 200	> 200	
COC(=O)c1c[nH]c(=O)[nH]c1=O	> 200	> 200	
COc1ccc([C@@H]2CC(=O)N2)cc1	> 200	> 200	
Cc1c([O-])c([O-])c(-c2c([O-])c([O-])c(C)c3c2OCO3)c2c1OCO2.[C-]#[O+].[C-]#[O+].[C-]#[O+].[C-]#[O+].[C-]#[O+].[C-]#[O+].[C-]#[O+].[C-]#[O+].[Re].[Re]	> 174	93.3	
